Tests used:
delF508-CFTR-HRP = molecular target: T1, delF508-CFTR-HRP (Homo sapiens, UniProt P13569, DEL508-508); experiment: Measurement of delF508-CFTR-HRP surface expression in CFBE41o- cells (HRP luminescence); format: cell-based; conditions: for Emax: CFBE41o-, read-out: DelF508-CFTR-HRP Amax %; for EC50: mean of at least two replicates;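 as to DelF508-CFTR-HRP Amax %: percent efficacy relative to a reference CFTR corrector compound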
T1 construct: expressed in transfected cells
In short: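 EC50 derived by logistic regression of triplicate surface-HRP luminescence, plate-normalized to the lowest-concentration median. Doxycycline (500 ng/mL, 48 h) induced delF508-CFTR-HRP in CFBE41o- cells; compounds then applied 24 h at 37° C, 10 μM top, 3-fold over 10 points.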

delF508-CFTR = molecular target: T2, delF508-CFTR (Homo sapiens, UniProt P13569, DEL508-508); experiment: delF508-CFTR functional activity in primary human bronchial epithelial cells (HBECs), Multi-Transepithelial Clamp Circuit (MTECC-24) assay, equivalent short circuit current; format: cell-based; conditions: primary CF HBECs; for MTECC24 CFHBEC-Amax %: relative to reference combination 2 μM 3-(6-(1-(2,2-difluorobenzo[d][1,3]dioxol-5-yl)cyclopropane-1-carboxamido)-3-methylpyridin-2-yl)benzoic acid (24 h) + 0.5 μM N-(2,4-di-tert-butyl-5-hydroxyphenyl)-4-oxo-1,4-dihydroquinoline-3-carboxamide; for EC50: test compound added 24 h before assay, potentiator (S)-3-amino-6-methoxy-N-(3,3,3-trifluoro-2-hydroxy-2-methylpropyl)-5-(trifluoromethyl)picolinamide present at assay, mean of at least two replicates, read-out: MTECC24 CFHBEC-EC50
T2 construct: functional activity of the CFTR channel (Chloride ion transport) in patient derived primary human bronchial epithelial cells; host or cells: patient-derived primary human bronchial epithelial cells (HBECs), delF508-CFTR
T2 sequence (P13569 with tags, fused parts or gaps DEL508-508): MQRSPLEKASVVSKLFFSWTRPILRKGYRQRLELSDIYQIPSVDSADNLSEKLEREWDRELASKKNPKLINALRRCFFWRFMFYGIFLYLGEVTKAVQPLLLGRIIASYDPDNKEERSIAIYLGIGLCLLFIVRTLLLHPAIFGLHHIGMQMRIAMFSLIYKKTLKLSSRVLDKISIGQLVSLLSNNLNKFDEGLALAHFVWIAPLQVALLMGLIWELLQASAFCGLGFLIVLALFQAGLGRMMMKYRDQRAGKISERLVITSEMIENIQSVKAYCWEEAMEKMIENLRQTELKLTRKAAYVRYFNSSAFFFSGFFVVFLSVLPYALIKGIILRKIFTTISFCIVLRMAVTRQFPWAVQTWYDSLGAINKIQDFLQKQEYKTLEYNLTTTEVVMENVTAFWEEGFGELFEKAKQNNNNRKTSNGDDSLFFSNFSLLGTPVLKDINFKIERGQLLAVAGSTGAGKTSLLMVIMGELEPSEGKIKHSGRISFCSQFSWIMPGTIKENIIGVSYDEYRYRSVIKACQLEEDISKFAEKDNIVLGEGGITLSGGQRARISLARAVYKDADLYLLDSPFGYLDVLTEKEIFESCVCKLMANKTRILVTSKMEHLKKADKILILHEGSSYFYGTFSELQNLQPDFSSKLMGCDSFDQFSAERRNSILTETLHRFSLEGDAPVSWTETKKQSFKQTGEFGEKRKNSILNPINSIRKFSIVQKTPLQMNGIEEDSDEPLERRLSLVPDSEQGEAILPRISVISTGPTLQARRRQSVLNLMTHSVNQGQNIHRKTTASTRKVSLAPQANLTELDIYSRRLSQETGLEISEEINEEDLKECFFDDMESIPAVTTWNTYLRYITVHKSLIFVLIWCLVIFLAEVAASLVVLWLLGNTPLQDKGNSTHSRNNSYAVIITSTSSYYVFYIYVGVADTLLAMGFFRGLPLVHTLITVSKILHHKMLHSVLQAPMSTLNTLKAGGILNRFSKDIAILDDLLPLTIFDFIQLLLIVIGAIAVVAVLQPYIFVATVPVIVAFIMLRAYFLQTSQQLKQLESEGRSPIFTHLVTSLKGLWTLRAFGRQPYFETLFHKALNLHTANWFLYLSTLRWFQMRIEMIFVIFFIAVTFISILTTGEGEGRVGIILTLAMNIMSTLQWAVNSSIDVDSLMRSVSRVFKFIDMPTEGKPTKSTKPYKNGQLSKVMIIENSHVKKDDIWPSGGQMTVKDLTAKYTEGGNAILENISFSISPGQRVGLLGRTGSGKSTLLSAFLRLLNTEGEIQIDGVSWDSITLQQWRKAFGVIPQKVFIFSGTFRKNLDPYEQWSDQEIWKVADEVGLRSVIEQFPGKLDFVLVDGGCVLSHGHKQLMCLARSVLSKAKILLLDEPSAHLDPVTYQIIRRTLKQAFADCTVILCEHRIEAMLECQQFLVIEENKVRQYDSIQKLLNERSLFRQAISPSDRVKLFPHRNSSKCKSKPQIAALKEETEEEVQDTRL
From the text: Measurement of delF508-CFTR Functional Activity in Primary Human Bronchial Epithelial Cells (HBECs) Using Multi-Transepithelial Clamp Circuit (MTECC-24) Assay
This assay measures the functional activity of the CFTR channel (Chloride ion transport) in patient derived primary human bronchial epithelial cells with forskolin activation and in the presence of the CFTR corrector wherein the corrector is a compound of the invention and the potentiator is (S)-3-amino-6-methoxy-N-(3,3,3-trifluoro-2-hydroxy-2-methylpropyl)-5-(trifluoromethyl)picolinamide.
Primary human delF508-CFTR bronchial epithelial cells were purchased from Asterand and cultured according to previously established methods (Fulcher et al. (2005) Methods Mol Med 107: 183-206). Briefly, vendor supplied cells were rapidly defrosted and added to a T175 flask in 50 mL growth media (Lonza BEBM media with Lonza BEGM singlequots). Media was replaced after 24 h and then cells were fed every other day until cells were 80-90% confluent, at which point cells were cryopreserved. These P1 vials were thawed at 37° C. as needed and added to T175 flasks in 50 mL growth media at 5×10^5 cells/flask. Media was replaced after 24 h, and then cells were fed every other day until 80-90% confluent. Cells were lifted with 5 mL Accutase at 37° C. for 5 minutes, centrifuged at 1000 rpms for 5 min (300 g), and resuspended in differentiation media (50% BEBM in DMEM, BEGM singlequots, all trans retinoic acid (5×10·8M)). Cells were then counted and cell suspension was added to collagen coated inserts at 3×10^4 cells/insert in 0.15 mL with 0.5 mL differentiation media on the basolateral side.
Apical and basolateral media were replaced on alternate days, and following day 7 (or when confluent plus 2 days), air liquid interface was established for approximately two weeks by removal of apical media. One day prior to use on the MTECC24 system (EP-Devices, EP Design, Belgium), 0.15 mL of warmed (37° C.) PBS was added to the apical surface of the cultures and returned to humidifier (37° C., 5% CO2 incubator) for 30 min before aspirating the apical surface to remove any mucus.
Compound treatments were then prepared. Compound dilutions, typically a 10 point concentration response with 1 in 3 dilution steps, were made in 100% DMSO before dilution 1 in 1000 into differentiation medium with a final DMSO concentration of 0.1% or 0.2% for the study. Compound containing medium was then transferred into the wells of a 24 well plate at 0.5 mL per well and warmed for 30 min in a 37° C. incubator prior to transferring washed inserts into the compound containing plates. Cells were incubated in compound containing medium (basolateral only) for 24 h prior to measurement in the MTECC24 system.
Following 24 hr treatment, compound dilutions were prepared again, diluted 1 in 1000 into 37° C. assay medium (F-12 Coon's modified, 20 mM HEPES pH7.4 with TRIS Base, No FCS or bicarbonate). Cells which were treated for 24 h with test compound were then transferred into plates containing 0.75 mL compound treatment in assay medium (basolateral) and 0.25 mL of the compound containing assay medium was added to the apical surface. The plates were then transferred to the heated plate compartments of the MTECC24 system for 45 min prior to measurements (this can also be done in a non-CO2 37° C. humidified incubator). Basolateral temperature should not exceed 36.5° C. and apical temperature should be approximately 35.5° C.
Modulators were added sequentially as follows while the MTECC24 instrument recorded the equivalent short circuit current (Ieq)
Prior to dilution into F-12 medium the stocks are as follows: Amiloride stock is 10 mM in H2O
Forskolin Stock is 10 mM in 100% DMSO
(S)-3-amino-6-methoxy-N-(3,3,3-trifluoro-2-hydroxy-2-methylpropyl)-5-(trifluoromethyl)picolinamide is 0.5 mM stock in 100% DMSO INH-172 (4-[[4-Oxo-2-thioxo-3-[3-trifluoromethyl)phenyl]-5-thiazolidinylidene]methyl]benzoic acid) stock is 30 mM in 100% DMSO […]

T1 sequence (P13569 with tags, fused parts or gaps DEL508-508): as above

| Structure (SMILES) | Emax (delF508-CFTR-HRP) [%] | EC50 (delF508-CFTR-HRP) [nM] | MTECC24 CFHBEC-Amax % (delF508-CFTR) [%] | EC50 (delF508-CFTR) [nM] |
| --- | --- | --- | --- | --- |
| Cc1ccc(C2CCCCC2)c(OC2(C(=O)NS(=O)(=O)c3cccc(N)n3)CC2)c1 [Example 1-1, N-((6-Aminopyridin-2-yl)sulfonyl)-1-(2-cyclohexyl-5-methylphenoxy)cyclopropane-1-carboxamide] | 421 | 2010 | 91 | 15 |
| Cc1ccc(-c2cc(F)cc(OCC(C)C)c2)c(OC2(C(=O)NS(=O)(=O)c3cccc(N)n3)CC2)c1 [Example 1-2, N-((6-Aminopyridin-2-yl)sulfonyl)-1-((3′-fluoro-5′-isobutoxy-4-methyl-[1,1′-biphenyl]-2-yl)oxy)cyclopropane-1-carboxamide] | 136 | 2440 | 89 | 45 |
| Cc1ccc(C2CCC(F)(F)CC2)c(OC2(C(=O)NS(=O)(=O)c3cccc(N)n3)CC2)c1 [Example 1-4, N-((6-Aminopyridin-2-yl)sulfonyl)-1-(2-(4,4-difluorocyclohexyl)-5-methylphenoxy)cyclopropane-1-carboxamide] | 260 | 3970 | 59 | 437 |
| Cc1ccc(C2CCCC(F)(F)C2)c(OC2(C(=O)NS(=O)(=O)c3cccc(N)n3)CC2)c1 (stereo not shown) [Example 1-5, N-((6-Aminopyridin-2-yl)sulfonyl)-1-(2-(3,3-difluorocyclohexyl)-5-methylphenoxy)cyclopropane-1-carboxamide] | 179 | 3960 | 94 | 312 |
| Cc1ccc(C2CCCCCC2)c(OC2(C(=O)NS(=O)(=O)c3cccc(N)n3)CC2)c1 [Example 1-6, N-((6-Aminopyridin-2-yl)sulfonyl)-1-(2-cycloheptyl-5-methylphenoxy)cyclopropane-1-carboxamide] | 765 | 1310 | 87 | 2 |
| Cc1ccc(C2CCCCC2)c(OC2(C(=O)NS(=O)(=O)c3nc(N)ccc3F)CC2)c1 [Example 1-7, N-((6-Amino-3-fluoropyridin-2-yl)sulfony)-1-(2-cyclohexyl-5-methylphenoxy)cyclopropane-1-carboxamide] | 109 | 2830 | 54 | 40 |
| Cc1ccc(C2(C(F)(F)F)CC2)c(OC2(C(=O)NS(=O)(=O)c3cccc(N)n3)CCCC2)c1 [Example 1-8, N-((6-Aminopyridin-2-yl)sulfonyl)-1-(5-methyl-2-(1-(trifluoromethyl)cyclopropyl)phenoxy)cyclopentane-1-carboxamide] | 165 | 2380 | 46 | 6 |
| Cc1ccc(C2CCCCC2)c(OC2(C(=O)NS(=O)(=O)c3cccc(N4CC(O)C4)n3)CC2)c1 [Example 2-1, 1-(2-Cyclohexyl-5-methylphenoxy)-N-((6-(3-hydroxyazetidin-1-yl)pyridin-2-yl)sulfonyl)cyclopropanecarboxamide] | 668 | 2360 | 97 | 5 |
| Cc1ccc(C2CCCCC2)c(OC2(C(=O)NS(=O)(=O)c3cccc(N4CCOC[C@@H]4C)n3)CC2)c1 [Example 2-2, (S)-1-(2-Cyclohexyl-5-methylphenoxy)-N-((6-(3-methylmorpholino)pyridin-2-yl)sulfonyl)cyclopropanecarboxamide] | 561 | 1330 | 59 | 2 |
| COC(=O)C1(C)CCN(c2cccc(S(=O)(=O)NC(=O)C3(Oc4cc(C)ccc4C4CCCCC4)CC3)n2)CC1 [Example 2-3, Methyl 1-(6-(N-(1-(2-cyclohexyl-5-methylphenoxy)cyclopropanecarbonyl)sulfamoyl)pyridin-2-yl)-4-methylpiperidine-4-carboxylate] | 337 | 460 | 79 | 5 |

From patent US20220033407A1, “N-(pyridin-2-ylsulfonyl)cyclopropanecarboxamide Derivatives and their Use in the Treatment of Disease” (NOVARTIS AG, priority 2018, published 2022)
